From PubChem BioAssay (NCI)
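All cell lines were grown in 96-well plates and treated with compound for 48 hours. The concentration for full growth arrest is given as TGI.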

Experiments:
Test in all cases: growth of human tumour cells (NCI), 48 h
HCC-2998 colon = test system: HCC-2998 colon
UO-31 renal = test system: UO-31 renal
CCRF-CEM leukemia = test system: CCRF-CEM leukemia
OVCAR-4 ovarian = test system: OVCAR-4 ovarian
OVCAR-3 ovarian = test system: OVCAR-3 ovarian
SK-OV-3 ovarian = test system: SK-OV-3 ovarian
HL-60(TB) leukemia = test system: HL-60(TB) leukemia
NCI-H226 lung = test system: NCI-H226 lung
SW-620 colon = test system: SW-620 colon
SF-268 CNS = test system: SF-268 CNS
HT29 colon = test system: HT29 colon
SNB-78 CNS = test system: SNB-78 CNS
HOP-62 NSCLC = test system: HOP-62 NSCLC
MOLT-4 leukemia = test system: MOLT-4 leukemia
SR leukemia = test system: SR leukemia
SF-295 CNS = test system: SF-295 CNS
TK-10 renal = test system: TK-10 renal
OVCAR-5 ovarian = test system: OVCAR-5 ovarian
RPMI-8226 leukemia = test system: RPMI-8226 leukemia
NCI-H522 lung = test system: NCI-H522 lung
RXF 393 renal = test system: RXF 393 renal
UACC-257 melanoma = test system: UACC-257 melanoma
SN12C renal = test system: SN12C renal
SK-MEL-5 melanoma = test system: SK-MEL-5 melanoma
A498 renal = test system: A498 renal
KM12 colon = test system: KM12 colon
U251 CNS = test system: U251 CNS
UACC-62 melanoma = test system: UACC-62 melanoma
ACHN renal = test system: ACHN renal
IGROV1 ovarian = test system: IGROV1 ovarian
SNB-19 CNS = test system: SNB-19 CNS
SK-MEL-28 melanoma = test system: SK-MEL-28 melanoma
A549 NSCLC = test system: A549 NSCLC
RXF-631 renal = test system: RXF-631 renal
DMS 114 small cell lung = test system: DMS 114 small cell lung
SK-MEL-2 melanoma = test system: SK-MEL-2 melanoma
HCT-15 colon = test system: HCT-15 colon
DLD-1 colon = test system: DLD-1 colon
M19-MEL melanoma = test system: M19-MEL melanoma
OVCAR-8 ovarian = test system: OVCAR-8 ovarian
DMS 273 small cell lung = test system: DMS 273 small cell lung
HOP-18 NSCLC = test system: HOP-18 NSCLC
MALME-3M melanoma = test system: MALME-3M melanoma
CAKI-1 renal = test system: CAKI-1 renal
LXFL 529 NSCLC = test system: LXFL 529 NSCLC
786-0 renal = test system: 786-0 renal
KM20L2 colon = test system: KM20L2 colon
SF-539 CNS = test system: SF-539 CNS
SNB-75 CNS = test system: SNB-75 CNS
K-562 leukemia = test system: K-562 leukemia
HCT-116 colon = test system: HCT-116 colon
NCI-H460 lung = test system: NCI-H460 lung
M14 melanoma = test system: M14 melanoma
HOP-92 NSCLC = test system: HOP-92 NSCLC
LOX IMVI melanoma = test system: LOX IMVI melanoma
XF 498 CNS = test system: XF 498 CNS
NCI-H23 lung = test system: NCI-H23 lung
EKVX NSCLC = test system: EKVX NSCLC

Measured: TGI

O=C(O)CCC(NC(=O)c1ccc(Nc2nc3ccccc3nc2-c2cccs2)cc1)C(=O)O (stereo not drawn)
> 100 µM: all assays above
